Test results from patent publication US12459914B2, “Compounds and compositions for the treatment of tumors” (FONDAZIONE ISTITUTO ITALIANO DI TECNOLOGIA, priority 2019, dated 2025).
Read-outs that look alike come from different tables or passages of the source.

How the values were obtained:
[1] = Pharmacokinetic studies in mice, plasma levels by LC/MS-MS; type: in vivo, C57B6/J mice; details: for half-life: read-out: t1/2 (calc)
Description: Male C57B6/J mice, 8 weeks old were used (Charles River). All procedures were performed in accordance with the Ethical Guidelines of European Communities Council (Directive 2010/63/EU of 22 Sep. 2010) and accepted by the Italian Ministry of Health. All efforts were made to minimize animal suffering and to use the minimal number of animals required to produce reliable results, according to the “3Rs concept”. Animals were group-housed in ventilated cages and had free access to food and water. They were maintained under a 12-hour light/dark cycle (lights on at 8:00 am) at controlled temperature (21° C.±1° C.) and relative humidity (55%±10%).
Compound d.12 was administered orally (PO), intraperitoneally (IP) and intravenously (IV) to C57B6/J male mice at 2 mg/kg/10 ml, 20 mg/kg/10 ml and 2 mg/kg/5 ml, respectively. Vehicle was composed by PEG400/Tween 80/Saline solution at 10/10/80% in volume, respectively for PO and IV administration. For IP administration, the same vehicle was used with the addition of 10% DMSO in final volume. Three animals per dose were treated. Blood samples at 0, 15, 30, 60, 120, 240, and 480 min after administration were collected for PO and IP arms. Blood samples at 0, 5, 15, 30, 60, 120 and 240 min after administration were collected for IV arm. Plasma was separated from blood by centrifugation for 15 min at 1500 rpm a 4° C., collected in a eppendorf tube and frozen (−80° C.). Control animals treated with vehicle only were also included in the experimental protocol.
Plasma samples were centrifuged at 21.100×g for 15 min at 4° C. An aliquot of each plasma sample was extracted (1:3) with cold CH3CN containing 200 nM of d.48 as internal standard being a close analogue of the parent compound. A calibration curve was prepared in naïve mouse plasma over a 1 nM-10 μM range. Three quality control samples were prepared by spiking the parent compound in naïve mouse plasma to 20, 200 and 2000 nM as final concentrations. The calibrators and quality control samples were extracted (1:3) with the same extraction solution as the plasma samples. The plasma samples, calibrators and quality control samples were centrifuged at 3.270×g for 15 min at 4° C. The supernatants were further diluted (1:1) with H2O, and analyzed by LC/MS-MS on a Waters ACQUITY UPLC/MS TQD system consisting of a Triple Quadrupole Detector (TQD) Mass Spectrometer equipped with an Electrospray Ionization interface and a Photodiode Array e, Detector from Waters Inc. (Milford, MA, USA). Electrospray ionization was applied in positive mode. Compound-dependent parameters as MRM transitions and collision energy were developed for the parent compound and the internal standard. The analyses were run on an ACQUITY UPLC BEH C18 (50×2.1 mmID, particle size 1.7 μm) with a VanGuard BEH C18 pre-column (5×2.1 mmID, particle size 1.7 μm) at 40° C., using H2O+0.1% HCOOH (A) and CH3CN+0.1% HCOOH (B) as mobile phase at 0.5 mL/min. A linear gradient was applied starting at 40% B with an initial hold for 0.2 min, then 40-100% B in 2 min, followed by a hold for 0.1 min at 100% B. All samples (plasma samples, calibrators and quality controls) were quantified by MRM peak area response factor in order to determine the levels of the parent compound in plasma. The plasma concentrations versus time were plotted and the profiles were fitted using PK Solutions Excel Application (Summit Research Service, USA) in order to determine the pharmacokinetic parameters. The results are reported in Tables 2 and 3 and in FIGS. 1, 2 and 3.

[2] = test system: BxPC-3 cells; assay: Association with olaparib (given alone or in combination), cell viability / cytotoxicity; type: cell-based; details: olaparib 10 μM, 72 h
Description: BxPC-3 cells were grown in RPMI 1640 containing 10% FBS, 100 U/ml penicillin/streptomycin, 2 mM glutamine. All media and supplements were from Sigma-Aldrich. Cultures were routinely tested for Mycoplasma contamination. Treatments (Olaparib and BRCA2-Rad51 disruptors) were administered in culture medium supplemented with 0.6% DMSO. The same amount of DMSO was added to the control, untreated cultures.
Cell viability was assessed by CellTiter Glo, Luminescent Cell Viability Assay. Briefly, BxPC-3 cells (1×10^4/well) were plated in white 96-well plates with clear bottom and treated for 72 h with olaparib (10 μM) or with the BRCA2-Rad51 disruptors, given alone or in combination. After treatments, the plate was allowed to equilibrate at room temperature for 30 min and the CellTiter-Glo reactive was directly added to each well. The plate was kept on a shaker for 2 min to induce cell lysis and its luminescence was measured by using a Fluoroskan Ascent FL reader (Labsystems) using manufacturer's instructions.
Cell death was assessed by applying the CellTox™ Green Cytotoxicity assay (Promega). Briefly, BxPC-3 (1×10^4/well) were plated in black 96-well plates with clear bottom and treated for 72 h with olaparib (10 μM) or with the BRCA2-Rad51 disruptors, given alone or in combination. At the end of treatment, the CellTox™ dye was added to cell cultures and the green fluorescence signal, which is produced by the binding interaction with dead cell DNA, was measured following the manufacturer's instructions. The fluorescence signal was detected using the EnSpire 2300 Multilabel Reader (Perkin Elmer); for each sample, the obtained signal was normalized on the number of viable cells, detected by the CellTiterGlo reagent.

[3] = male, C57B6/J, mouse, plasma, mice, IP 20 mg/kg
[4] = male, C57B6/J, mouse, plasma, mice, IV 2 mg/kg
[5] = male, C57B6/J, mouse, plasma, mice, PO 2 mg/kg
[6] = male, C57B6/J, mouse plasma, IV 2 mg/kg, read-out: Average conc.
[7] = male, C57B6/J, mouse plasma, PO 2 mg/kg, read-out: Average conc.

Structure (SMILES): CCC(=O)N1N=C(c2c(-c3ccccc3)c3cc(Cl)ccc3[nH]c2=O)CC1c1ccc(OC)cc1 (stereo not drawn) [d.12, 6-chloro-3-[3-(4-methoxyphenyl)-2-propanoyl-3,4-dihydropyrazol-5-yl]-4-phenyl-1H-quinolin-2-one]
- AUC [1, 3]: 9.28 µg·h/mL
- Cmax [1, 3]: 5.3 µg/mL
- Tmax [1, 3]: 30 min
- half-life [1, 3]: 175 min
- AUC [1, 4]: 0.899 µg·h/mL
- Cmax [1, 4]: 0.973 µg/mL
- Tmax [1, 4]: 5 min
- clearance ([1]; male, C57B6/J, mouse, plasma, mice, IV 2 mg/kg, read-out: CL (calc)): 1.98 L/h/kg
- Vd ([1]; male, C57B6/J, mouse, plasma, mice, IV 2 mg/kg, read-out: VD (calc)): 2.2 L/kg
- half-life [1, 4]: 47 min
- AUC [1, 5]: 0.1 µg·h/mL
- Cmax [1, 5]: 0.076 µg/mL
- Tmax [1, 5]: 30 min
- half-life [1, 5]: 281 min
- concentration at 5 min ([1]; male, C57B6/J, mouse plasma, IV 2 mg/kg, 5 min, read-out: Average conc.): 0.973 µg/mL
- concentration at 15 min [1, 6]: 0.622 µg/mL
- concentration at 30 min [1, 6]: 0.515 µg/mL
- concentration at 60 min [1, 6]: 0.337 µg/mL
- concentration at 120 min [1, 6]: 0.146 µg/mL
- concentration at 240 min [1, 6]: 0.023 µg/mL
- concentration at 0 min ([1]; male, C57B6/J, mouse plasma, PO 2 mg/kg, 0 min, read-out: Average conc.): 0 µg/mL
- concentration at 15 min [1, 7]: 0.042 µg/mL
- concentration at 30 min [1, 7]: 0.076 µg/mL
- concentration at 60 min [1, 7]: 0.03 µg/mL
- concentration at 120 min [1, 7]: 0.021 µg/mL
- concentration at 240 min [1, 7]: 0.007 µg/mL
- concentration at 480 min ([1]; male, C57B6/J, mouse plasma, PO 2 mg/kg, 480 min, read-out: Average conc.): 0.004 µg/mL
- F ([1]; mice, 2 mg/kg): 11%
- CL (calc) ([1]; mice, IP 20 mg/kg): 1.62 L/h/kg
- VD (calc) ([1]; mice, IP 20 mg/kg): 6.701 L/kg
- CL (calc) ([1]; mice, PO 2 mg/kg): 13.3 L/h/kg
- VD (calc) ([1]; mice, PO 2 mg/kg): 90.009 L/kg
- Olaparib Assoc. [2]: synergy
